The source of these data is US20260325443A1, “OLFACTORY DELIVERY OF THERAPEUTIC PSYCHEDELICS” (Rocket Science Health Corp., priority 2023, published 2026).

Series [1] is described as follows: Visualizing olfactory cleft delivery with methylene blue (nasal endoscope imaging). The class given is in vivo, human. The note with it: for Olfactory Residence Time: 0.1 mL, individual participants 2.01-2.05, at least 50% of fluid at olfactory cleft. On the procedure: Participants: Five healthy participants (ages 19+) with no history of sinonasal symptoms and no evidence of nasal inflammation were recruited for this study. Prior to recruitment of participants study procedures were approved by Providence Health Care research ethics board, (British Columbia, Canada) and conducted under Health Canada Investigational Testing Authorization #314993. All participants were assessed by a licensed otolaryngologist physician to confirm their eligibility. Participants completed two study visits during which a licensed otolaryngologist physician administered 0.1 mL of the visual dye tracer, methylene blue.
Study Design: During the first visit, the methylene blue was administered using the Laminar Fluid Ejection method (1.5 mm cannula; velocity=4.5 m/s). During the second visit, methylene blue was administered using a conventional nasal spray device (Pharma systems Item #10272, UPC: 063636802714). The Pharma systems spray device was used in these experiments because it was the device normally used by the compounding pharmacy for intranasal delivery. It was the device patients and clinicians were used to at this clinic.
Following delivery, the physician used a nasal endoscope to image the deposition of methylene blue to the olfactory cleft at up to five time points (1, 5, 8, 12, and 15 minutes following delivery). From each image, the physician judged whether at least 50% of the methylene blue fluid was delivered to the olfactory cleft. If <50% of the methylene blue was judged to have deposited in the olfactory cleft, imaging was stopped and that session's trial was completed.

The nature of series [2]: Plasma and tissue concentrations of ketamine via olfactory delivery compared to intravenous administration in rats (LC/MS/MS). Particulars: 5 mg/kg; for concentration at 5 min / concentration at 0.25 h / concentration at 0.5 h / concentration at 1 h / concentration at 1.5 h / concentration at 2 h / concentration at 200 min: rat, plasma; for concentration at 0.25 h: 15 min; for concentration at 0.5 h: 30 min; for concentration at 1 h: 60 min; for concentration at 1.5 h: 90 min; for concentration at 2 h: 120 min. The format is in vivo, male Sprague Dawley rats. On the procedure: Drug Administration and Sample Collection: Intravenous (IV) administration was conducted by 100 μL tail vein injection. Olfactory delivery (OD) administration was conducted by a. 0.699 mm diameter cannula inserted into the right nostril with a minimal angle of 20-degrees to the target of the correct meatus.
Time course experiment and tissue concentration: 12 male Sprague Dawley rats (Age M+/−SD, Weight: 176.27-188.03 g) were administered Ketamine-HCl via IV or OD administration (resulting in two experimental groups, each with n=6). Ketamine-HCl was formulated according to the following procedures: For Ketamine-HCL 5 mg/kg OD: 24.64 mg Ketamine-HCL was added to 0.426 ml of saline, mixed well, and dissolved, with a solution concentration of 50 mg/ml. For Ketamine-HCL 5 mg/kg IV: 0.20 ml of 50 mg/ml Ketamine-HCL solution, was added to 0.60 ml of saline and mixed well to achieve a solution concentration of 12.5 mg/ml. Plasma time courses for 200 minutes were generated. Concentration of compound in brain, olfactory bulb, and plasma at t=200 minutes was quantified using LC/MS/MS.

Series [3] is described as follows: Effect of administration routes (OD, IN, IV) on plasma, brain and olfactory bulb drug concentrations in rats (LCMS). The note with it: 15 min after administration, 5.0 mg/kg.
Description: The goal of this example was to compare nasal cannula delivery (OD) with the traditional IV and IN administration routes.
Procedure: The three routes of administration were tested on rats. A compound formulation of ketamine (5.0 mg/kg), naloxone (0.5 mg/kg), diazepam (2.0 mg/kg), and ondansetron (1.0 mg/kg) was administer. 15 minutes after the drug was administered, rats were sacrificed and samples were taken from plasma, the olfactory bulb, and the brain. To assess each route of administration's efficacy, drug concentrations in each tissue were quantified using liquid chromatography-mass spectrometry (LCMS).

Where “and” joins values, the source holds several entries; their conditions need not be identical. Identical values can stand only once. Counter-ions that a name gives are not always drawn.

In the case of `CN(C)c1ccc2nc3ccc(=[N+](C)C)cc-3sc2c1` [Methylene Blue], the “Olfactory Residence Time” value in series [1] (LFE Method (1.5 mm cannula; velocity=4.5 m/s)) is 8 min and 5 min and 0 min and 1 min and 15 min; in series [1] (conventional nasal spray) it was 0 min. Also, the “participants with successful delivery of >50% of the methylene blue to the olfactory cleft” value in series [1] (Laminar Fluid Ejection method) was “Four of the five participants”. The “delivery of at least 50% of the dye to the olfactory cleft” value in series [1] (conventional nasal spray, each of the five participants) was “failed to deliver at least 50% of the dye”.
Consider `CNC1(c2ccccc2Cl)CCCCC1=O` (centres unmarked) [ketamine], for which the “plasma concentration, OD vs IV” value in series [2] is recorded as “higher plasma concentration of ketamine can be achieved with OD than IV”. The “delivery to brain tissue, targeted to olfactory cleft (OD) vs traditional intranasal” value in series [3] was “improved delivery to brain tissue compared to traditional intranasal sprays”.
With `CNC1(c2ccccc2Cl)CCCCC1=O` (centres unmarked) [Ketamine-HCl], in series [2] (IV), the concentration at 5 min turned out to be 1710 ng/mL, the concentration at 0.25 h came out at 686 ng/mL, the concentration at 0.5 h was 330 ng/mL and the concentration at 1 h was 150 ng/mL. In series [2] (IV), the concentration at 1.5 h worked out at 65.8 ng/mL, the concentration at 2 h came to 27.1 ng/mL and the concentration at 200 min came to 2.53 ng/mL. In series [2] (OD), the concentration at 5 min worked out at 7600 ng/mL, the concentration at 0.25 h worked out at 7250 ng/mL, the concentration at 0.5 h was 2630 ng/mL and the concentration at 1 h was 383 ng/mL. In series [2] (OD), this molecule gave a concentration at 1.5 h of 149 ng/mL, a concentration at 2 h of 63 ng/mL and a concentration at 200 min of 5.3 ng/mL.
